Laboratory results taken from PubChem BioAssay (NCI).
Values joined by “and” are separate entries in the source; they are usually repeats but may differ in a detail not shown here. Equal entries are not always repeated.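 The compound was tested at five concentrations on cells cultured in 96-well plates, with a 48-hour exposure period. At the GI50, growth is halved. TGI marks complete inhibition of growth.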

Columns and labels:
Test in all cases: growth of human tumour cells (NCI), 48 h
MALME-3M melanoma = tested on: MALME-3M melanoma
A549 NSCLC = tested on: A549 NSCLC
NCI-H522 lung = tested on: NCI-H522 lung
KM12 colon = tested on: KM12 colon
KM20L2 colon = tested on: KM20L2 colon
MDA-MB-231 breast = tested on: MDA-MB-231 breast
M19-MEL melanoma = tested on: M19-MEL melanoma
NCI/ADR-RES ovarian = tested on: NCI/ADR-RES ovarian
BT-549 breast = tested on: BT-549 breast
K-562 leukemia = tested on: K-562 leukemia

COc1cccc2c1C(=O)c1c(O)c3c(c(O)c1C2=O)C[C@@](O)(C(=O)CO)C[C@@H]3OC1CC(N)CC(C)O1 (some centres undefined)
GI50 (MALME-3M melanoma): 49.1 nM | TGI (MALME-3M melanoma): 256 nM and 110 nM | GI50 (A549 NSCLC): 9.92 nM and 10.7 nM and 31.5 nM | GI50 (NCI-H522 lung): 33.9 nM | TGI (NCI-H522 lung): 179 nM and 303 nM | GI50 (KM12 colon): 79.8 nM and 51.5 nM | TGI (KM12 colon): 1310 nM and 1890 nM | GI50 (KM20L2 colon): 54.5 nM | TGI (KM20L2 colon): 528 nM and 1410 nM | GI50 (MDA-MB-231 breast): 232 nM | TGI (MDA-MB-231 breast): 675 nM and 780 nM | GI50 (M19-MEL melanoma): 36.3 nM | TGI (M19-MEL melanoma): 186 nM and 174 nM | GI50 (NCI/ADR-RES ovarian): 2750 nM | TGI (NCI/ADR-RES ovarian): 28200 nM | GI50 (BT-549 breast): 106 nM | TGI (BT-549 breast): 460 nM and 215 nM | GI50 (K-562 leukemia): 24.3 nM and 41.4 nM | TGI (K-562 leukemia): 783 nM and 406 nM
